The values below come from PMC8036738, “Evaluation of Selective COX-2 Inhibition and In Silico Study of Kuwanon Derivatives Isolated from Morus alba” (International Journal of Molecular Sciences, 2021).

What all share (assay type): biochemical, ovine
The subject of experiment [1] is COX-2. The experiment is described as follows: in vitro COX-2 enzyme inhibition assay (fluorometric inhibitor screening kit). How it is done:
(§1) Dimethyl sulfoxide (DMSO) and COX-1/2 Inhibitor Screening Kit (BioVison, California, CA, USA) were used according to the manufacturer’s instructions. All other reagents used were of the highest purity commercially available. All samples were dissolved in DMSO at a concentration of 100 mM.
(§2) The ability of the test compounds to inhibit COX-1 and COX-2 isoenzymes in vitro was determined using a Biovision fluorometric COX-1/-2 inhibitor screening assay kit. Briefly, the COX assay buffer (75 μL), COX cofactor working solution (2 μL), COX probe solution (1 μL), recombinant COX-1 or COX-2 (1 μL), arachidonic acid/NaOH solution (10 μL), and test solution (10 μL) were mixed in a 96-well plate, and the fluorescence kinetics were measured for 10 min at 25 °C. […] Fluorescence was measured using a microplate spectrophotometer (Bio-Tek, Winooski, VT, USA). Two points (T1 and T2) in the linear range of the plot were used to obtain the corresponding fluorescence values (RFU1 and RFU2). Then, the slope for all samples (S) was calculated by dividing the net ΔRFU (RFU2 − RFU1) values by the time ΔT (T2 − T1) using the following equation: Relative inhibition (%) = ((slope of the enzyme control − slope of S)/(slope of the enzyme control)) × 100.
(§3) The samples were evaluated in triplicates at five different concentrations.

A further experiment concerns the target T1, COX-1 (Ovis aries, UniProt P05979).
T1 construct: purchased BioVision
T1 sequence (P05979 25-600): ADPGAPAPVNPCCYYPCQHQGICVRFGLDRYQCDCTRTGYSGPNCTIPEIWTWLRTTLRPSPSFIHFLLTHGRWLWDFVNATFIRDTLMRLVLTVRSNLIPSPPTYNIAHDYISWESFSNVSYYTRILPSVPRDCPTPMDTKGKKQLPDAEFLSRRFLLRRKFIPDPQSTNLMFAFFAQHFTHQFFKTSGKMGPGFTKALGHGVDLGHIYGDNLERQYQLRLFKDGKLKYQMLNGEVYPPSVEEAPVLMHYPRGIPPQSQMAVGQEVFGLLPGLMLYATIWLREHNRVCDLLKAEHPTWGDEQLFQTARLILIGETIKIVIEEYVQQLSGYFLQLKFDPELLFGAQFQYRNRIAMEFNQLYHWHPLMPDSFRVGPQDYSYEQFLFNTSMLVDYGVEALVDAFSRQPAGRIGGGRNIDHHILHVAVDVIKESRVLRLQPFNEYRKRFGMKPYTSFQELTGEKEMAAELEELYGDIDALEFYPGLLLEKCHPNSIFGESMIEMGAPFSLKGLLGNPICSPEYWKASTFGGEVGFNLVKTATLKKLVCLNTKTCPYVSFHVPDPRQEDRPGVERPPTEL
The experiment is described as follows: in vitro COX-1 enzyme inhibition assay (fluorometric inhibitor screening kit). How it is done: as §1, §2, §3

The target in experiment [2] is T2, COX-2 (Homo sapiens, UniProt P35354).
T2 sequence (P35354 18-604): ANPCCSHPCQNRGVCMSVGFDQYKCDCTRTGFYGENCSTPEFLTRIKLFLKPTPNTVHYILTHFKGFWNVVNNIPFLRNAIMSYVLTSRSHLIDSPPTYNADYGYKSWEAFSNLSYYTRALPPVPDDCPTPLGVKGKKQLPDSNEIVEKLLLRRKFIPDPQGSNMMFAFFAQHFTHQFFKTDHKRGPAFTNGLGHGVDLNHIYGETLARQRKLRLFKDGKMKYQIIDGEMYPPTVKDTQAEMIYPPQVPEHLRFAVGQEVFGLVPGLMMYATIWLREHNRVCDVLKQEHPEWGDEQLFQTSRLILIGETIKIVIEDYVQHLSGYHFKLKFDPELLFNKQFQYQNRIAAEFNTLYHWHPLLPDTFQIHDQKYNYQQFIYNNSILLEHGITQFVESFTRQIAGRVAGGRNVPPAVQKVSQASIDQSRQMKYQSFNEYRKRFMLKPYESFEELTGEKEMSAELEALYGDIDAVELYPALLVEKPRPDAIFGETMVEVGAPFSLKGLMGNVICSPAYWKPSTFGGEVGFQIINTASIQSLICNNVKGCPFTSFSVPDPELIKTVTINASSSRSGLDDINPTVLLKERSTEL
The experiment is described as follows: in vitro COX-2 enzyme inhibition assay (fluorometric inhibitor screening kit). On the procedure: as §1, §2, §3

[3] abbreviates: triplicates at five concentrations, read-out: IC50 COX-1.

Like-named read-outs stand apart in the source and are kept apart here.

Broadly, the IC50 is the concentration needed to halve the response being measured. Consider `CC(C)=CCC/C(C)=C/Cc1cc(C2CC(=O)c3c(O)cc(O)cc3O2)c(O)cc1O` (stereo not shown) [Kuwanon E, kuwanon E], for which the “SI (selectivity index, COX-1 IC50/COX-2 IC50)” value in the experiment with COX-2 [1] is reported as 1.4. The IC50 at COX-1 (setting [3]) was found to be 46 µM.
For `CC(C)=CCc1c(-c2ccc(O)c3c2OC(C)(C)C=C3)oc2cc(O)cc(O)c2c1=O` [Kuwanon A, kuwanon A], in that order: greater than 7.1 and greater than 100 µM.
On COX-1, `CC(C)=CCc1c(-c2ccc(O)cc2O)oc2c(CC=C(C)C)c(O)cc(O)c2c1=O` [Kuwanon C, kuwanon C] had a half-inhibitory concentration (IC50) of 67 µM.
As to `CC(C)=CCc1c(-c2ccc(O)cc2O)oc2c(C3C=C(C)CC(c4ccc(O)cc4O)C3C(=O)c3ccc(O)cc3O)c(O)cc(O)c2c1=O` (stereo not shown) [Kuwanon G, kuwanon G], the “COX-2 inhibition activity (in words)” value at COX-2 [2] is on record as “no COX-2 inhibition activity”. In addition, the 50% inhibitory concentration (IC50) at COX-1 (setting [3]) was greater than 100 µM.
On to `CC(C)=CCc1c(-c2ccc3c(c2O)C=CC(C)(C)O3)oc2cc(O)cc(O)c2c1=O` [Kuwanon B, kuwanon B], for which the “SI (selectivity index, COX-1 IC50/COX-2 IC50)” value in the experiment on COX-2 [1] came to 1.3. In addition, at COX-1 (setting [3]), the IC50 amounted to 36 µM.
With `CC(C)=CCc1c(O)ccc(C(=O)C2C(c3c(O)cc(O)c4c(=O)c(CC=C(C)C)c(-c5ccc(O)cc5O)oc34)C=C(C)CC2c2ccc(O)cc2O)c1O` (stereo not shown) [Kuwanon H, kuwanon H], on COX-1 (setting [3]), the IC50 came out at 37 µM.
